system: NF-κB; assay: NF-κB luciferase reporter assay in A549/NF-κBLuc cells stimulated with IL-1β; type: cell-based, human; details: A549/NF-κBLuc cells; compound added 1 hour before IL-1β, 3 hours more incubation; luciferase activity as index
Description: Effects of Compounds on Human Lung Cancer A549 Cells (A549/NF-κBLuc) Stably Transfected with Luciferase Plasmid (pNFκB-Luc, Stratagene, U.S.A.) Having the NF-κB Regulatory Sequence
Using lipofectamine (Lifetech Oriental K.K., Tokyo), pNFκB-Luc were cotransfected with pSV2neo (Clontech, U.S.A.) into A549 cells (ATCC CCL185) according to the conventional method, and A549/NF-κBLuc stably transfected with pNFκB-Luc were selected by adding G418 sulfate (1 mg/ml, Lifetech Oriental K.K.) to the culture medium.
A compound prepared in an Example was added to A549/NF-κBLuc, then IL-1β which was able to activate the NF-κB was added at 1 hour thereafter and incubation was continued for 3 hours more. It has been made clear by using a luciferase activity as an index that the compound obtained in the Example suppresses the activation of NF-κB by stimulated with IL-1β.

| Compound | IC50 value [µg/mL] |
| --- | --- |
| COC1=C(OC)C(=O)C(Cc2ccc(-c3ccncc3)c(C(=O)N[C@@H](C)c3ccccc3)c2)=C(C)C1=O [Example 74b, (S)-N-[5-(5,6-Dimethoxy-3-methyl-1,4-benzoquinon-2-yl)methyl-2-(4-pyridyl)benzoyl]-1-phenylethylamine] | >45 |

same assay, conditions: Homo sapiens, A549, A549/NF-κBLuc cells; compound added 1 hour before IL-1β, 3 hours more incubation; luciferase activity as index

| Compound | IC50 [µg/mL] |
| --- | --- |
| COC1=C(OC)C(=O)C(Cc2cccc(C(=O)Nc3ccc(C(F)(F)F)cc3)c2-c2ccncc2)=C(C)C1=O [Example 73, N-[3-(45,6-Dimethoxy-3-methyl-1,4-benzoquinon-2-yl)methyl-2-(4-pyridyl)benzoyl]-4-trifluoromethylaniline] | > 30 |
| COC1=C(OC)C(=O)C(Cc2ccc(-c3ccncc3)c(C(=O)N[C@@H](C)c3ccccc3)c2)=C(C)C1=O [Example 74a, (S)-N-[5-(5,6-Dimethoxy-3-methyl-1,4-benzoquinon-2-yl)methyl-2-(4-pyridyl)benzoyl]-1-phenylethylamine] | > 45 |
| COC1=C(OC)C(=O)C(Cc2ccc(-c3ccncc3)c(C(=O)N[C@H](C)c3ccccc3)c2)=C(C)C1=O [Example 75a, (R)-N-[5-(5,6-Dimethoxy-3-methyl-1,4-benzoquinon-2-yl)methyl-2-(4-pyridyl)benzoyl]-1-phenylethylamine] | > 45 |
| COC1=C(OC)C(=O)C(Cc2ccc(-c3ccncc3)c(C(=O)NC3CCCCC3)c2)=C(C)C1=O [Example 76a, N-[5-(5,6-Dimethoxy-3-methyl-1,4-benzoquinon-2-yl)methyl-2-(4-pyridyl)benzoyl]cyclohexyl-amine] | > 45 |
| COC1=C(OC)C(=O)C(Cc2ccc(-c3ccncc3)c(C(=O)NC3CCCC3)c2)=C(C)C1=O [Example 77a, N-[5-(5,6-Dimethoxy-3-methyl-1,4-benzoquinon-2-yl)methyl-2-(4-pyridyl)benzoyl]cyclopentylamine] | > 45 |
| COC1=C(OC)C(=O)C(Cc2ccc(-c3ccncc3)c(C(=O)NC3CC3)c2)=C(C)C1=O [Example 78a, N-[5-(5,6-Dimethoxy-3-methyl-1,4-benzoquinon-2-yl)methyl-2-(4-pyridyl)benzoyl]cyclopropyl-amine] | > 45 |
| CCC(CC)NC(=O)c1cc(CC2=C(C)C(=O)C(OC)=C(OC)C2=O)ccc1-c1ccncc1 [Example 79a, N-[5-(5,6-Dimethoxy-3-methyl-1,4-benzoquinon-2-yl)methyl-2-(4-pyridyl)benzoyl]-1-ethylpropylamine] | > 45 |
